Laboratory results as given in ChEMBL document CHEMBL1136259, “Synthesis of 2-substituted-pyrrolidinethiourea derivatives and their antagonist effect on vanilloid receptor” (Bioorg Med Chem Lett, 2003).

Key:
Rattus norvegicus [1] = organism: Rattus norvegicus; assay: Antagonist activity tested in [Ca2+] -influx assay by using neonatal rat cultured spinal sensory neurons; assay type: functional
Rattus norvegicus [2] = organism: Rattus norvegicus; assay: Agonist activity tested in [Ca2+] -influx assay by using neonatal rat cultured spinal sensory neurons; assay type: functional

Structure (SMILES)	IC50 (Rattus norvegicus [1]) [µM]	EC50 (Rattus norvegicus [2]) [µM]
COc1cc(C2CCCN2/C(S)=N/CCc2ccccc2)ccc1O (stereo not given)	> 100	> 100
Oc1ccc(CCC2CCCN2/C(S)=N/CCc2ccccc2)cc1O (stereo not given)	55	> 100
Oc1ccc(C2CCCN2/C(S)=N/CCc2ccccc2)cc1O (stereo not given)	> 100	> 100
COc1cc(CCC2CCCN2/C(S)=N/CCc2ccccc2)ccc1O (stereo not given)	3	> 100
Oc1cc2c(cc1O)CN(C(=S)NCCc1ccc(Cl)cc1)CCC2 [CAPSAZEPINE]	0.6	> 100
